Experimental data from patent US20060148649A1, “Substituted n-aryl nitrogen heterocycles” (priority 2003, published 2006).

Assays:
[1] = test system: crop plants, such as wheat; assay: Post-emergence test (crop plant tolerance); type: in vivo; details: some crop plants, e.g. wheat, rated after three weeks
[2] = log P determination by HPLC (EEC directive 79/831 Annex V.A8, reverse-phase C 18); details: for logP: HPLC, reverse-phase C 18, 43° C., acidic range: 0.1% aqueous phosphoric acid/acetonitrile gradient (marked a)); for chromatographic logP: reverse-phase C18 HPLC column, pH 2.3
[3] = test system: weeds; assay: Pre-emergence test (herbicidal activity); type: in vivo; details: soil sprayed 24 hours after sowing, rated after three weeks
[4] = test system: crop plants, such as corn and sugar beet; assay: Pre-emergence test (crop plant tolerance); type: in vivo; details: some crop plants, e.g. corn and sugar beet, rated after three weeks
[5] = test system: weeds; assay: Post-emergence test (herbicidal activity); type: in vivo; details: test plants of 5-15 cm sprayed, rated after three weeks

Row | Structure (SMILES) | tolerance by crop plants [1] | logP [2] | tolerance by crop plants [4] | further results
1 | CC1OC(=O)N(c2cc(-n3c(=O)cc(C(F)(F)F)n(C)c3=O)c(F)cc2C#N)C1=O (stereo not drawn) [Example 10] | tolerated well | logP = 2.49^a) |  | 
2 | Cn1c(C(F)(F)F)nn(-c2cc(N3CCC4(CC3)OCCO4)c(C#N)cc2F)c1=O [Example 50] |  | logP = 2.81^a) |  | 
3 | CCOC(=O)C1CCCN1c1cc(-n2c(=O)cc(C(F)(F)F)n(C)c2=O)c(F)cc1Br (stereo not drawn) [Example 82] |  | logP = 3.61^a) |  | 
4 | Cn1c(C(F)(F)F)cc(=O)n(-c2cc(N3CCC(O)C3)c(C#N)cc2F)c1=O (stereo not drawn) [Example 31] | tolerated well | logP = 2.02^a) | tolerated well | activity against weeds (degree of damage vs untreated control) [3]: very strong activity; activity against weeds (degree of damage vs untreated control) [5]: very strong activity
5 | Cn1c(C(F)(F)F)cc(=O)n(-c2cc(N3CCC(C(F)(F)F)CC3)c(C#N)cc2F)c1=O [Example 37] |  | logP = 3.52^a) |  | 
6 | Cn1c(C(F)(F)F)cc(=O)n(-c2cc(N3C(=O)COC3=O)c(C#N)cc2F)c1=O [Example 12] | tolerated well |  |  | 
7 | CCOC(=O)C1CCN(c2cc(N3C(=O)C(C)=C(C)C3=O)c(F)cc2C#N)CC1 [Example 64] |  | logP = 3.37^a) |  | 
8 | CCOC(=O)C1CCCN1c1cc(-n2c(=O)cc(C(F)(F)F)n(C)c2=O)c(F)cc1Cl (stereo not drawn) [Example 83] |  | logP = 3.49^a) |  | 
9 | CCOC(=O)C1CCN(c2cc(-n3c(=O)cc(C(F)(F)F)n(C)c3=O)c(F)cc2C#N)CC1 [Example 2, 3-[4-cyano-5-(4-ethoxycarbonylpiperidin-1-yl)-2-fluorophenyl]-1-methyl-6-trifluoromethyl-1H-pyrimidine-2,4-dione] | tolerated well |  | tolerated well | activity against weeds (degree of damage vs untreated control) [3]: very strong activity; activity against weeds (degree of damage vs untreated control) [5]: very strong activity; chromatographic logP [2]: 3.23
10 | Cn1c(C(F)(F)F)cc(=O)n(-c2cc(-n3ccc(C=O)c3)c(C#N)cc2F)c1=O [Example 6] | tolerated well | m.p.: 174 °C logP = 2.25^a) | tolerated well | 
11 | CCOC(=O)C1CCN(c2cc(N3C(=O)C4=C(CCCC4)C3=O)c(F)cc2C#N)CC1 [Example 59] |  | logP = 3.77^a) |  | 
12 | Cn1c(C(F)(F)F)cc(=O)n(-c2cc(-n3cccc3)c(C#N)cc2F)c1=O [Example 5] | tolerated well |  | tolerated well | 
13 | Cn1c(C(F)(F)F)cc(=O)n(-c2cc(N3C(=O)CN(C4CC4)C3=O)c(C#N)cc2F)c1=O [Example 3, 3-[4-cyano-2-fluoro-5-(1-cyclopropyl-2,4-dioxoimidazolidin-3-yl)phenyl]-1-methyl-6-trifluoromethyl-1H-pyrimidine-2,4-dione] | tolerated well |  | tolerated well | activity against weeds (degree of damage vs untreated control) [3]: very strong activity; activity against weeds (degree of damage vs untreated control) [5]: very strong activity; chromatographic logP [2]: 2.25
14 | CCOC(=O)C1CCCN1c1cc(-n2c(=O)cc(C(F)(F)F)n(C)c2=O)c(F)cc1C#N (stereo not drawn) [Example 84] |  | logP = 3.01^a) |  | 
15 | N#Cc1cc(F)c(-n2c(=O)cc(C(F)(F)F)n(N)c2=O)cc1N1CCC2(CC1)OCCCO2 [Example 41] |  | logP = 2.40^a) |  | 
16 | Cc1ccc(C)n1-c1cc(-n2c(=O)cc(C(F)(F)F)n(C)c2=O)c(F)cc1C#N [Example 4] | tolerated well |  | tolerated well | 
17 | Cn1c(C(F)(F)F)cc(=O)n(-c2cc(N3C(=O)C4CCCCN4C3=O)c(C#N)cc2F)c1=O (stereo not drawn) [Example 9] | tolerated well | logP = 2.42^a) | tolerated well | 

Row | Structure (SMILES) | tolerance by crop plants [1] | logP [2] | tolerance by crop plants [4] | further results
18 | N#Cc1cc(F)c(-n2c(=O)cc(C(F)(F)F)[nH]c2=O)cc1N1CCC(O)CC1 [Example 18] |  | logP = 1.62^a) |  | 
19 | Cn1c(C(F)(F)F)cc(=O)n(-c2cc(N3CCC4(CC3)OCCCO4)c(C#N)cc2F)c1=O [Example 40] |  | logP = 2.69^a) |  | 
20 | CCOC(=O)CCN1CC(=O)N(c2cc(-n3c(=O)cc(C(F)(F)F)n(C)c3=O)c(F)cc2C#N)C1=O [Example 8] |  | logP = 2.48^a) |  | 
21 | Cn1c(C(F)(F)F)cc(=O)n(-c2cc(N3CCC4(CC3)OCCO4)c(C#N)cc2F)c1=O [Example 34] |  | logP = 2.67^a) |  | 
22 | CCOC(=O)C1CCCCN1c1cc(-n2c(=O)cc(C(F)(F)F)n(C)c2=O)c(F)cc1Cl (stereo not drawn) [Example 69] |  | logP = 4.07^a) |  | 
23 | N#Cc1cc(F)c(-n2c(=O)cc(C(F)(F)F)[nH]c2=O)cc1N1CCC(C(F)(F)F)CC1 [Example 42] |  | logP = 2.96^a) |  | 
24 | N#Cc1cc(F)c(-n2c(=O)cc(C(F)(F)F)n(N)c2=O)cc1N1CCC2(CC1)OCCO2 [Example 35] |  | logP = 2.37^a) |  | 
25 | CCOC(=O)C1CCCCN1c1cc(-n2c(=O)cc(C(F)(F)F)n(C)c2=O)c(F)cc1Br (stereo not drawn) [Example 74] |  | logP = 4.18^a) |  | 
26 | CCOC(=O)C1CCN(c2cc(-n3c(=O)cc(C(F)(F)F)n(N)c3=O)c(F)cc2C#N)CC1 [Example 16] | tolerated well | logP = 2.89^a) | tolerated well | activity against weeds (degree of damage vs untreated control) [3]: very strong activity; activity against weeds (degree of damage vs untreated control) [5]: very strong activity
27 | N#Cc1cc(F)c(-n2c(=O)cc(C(F)(F)F)[nH]c2=O)cc1N1CCC(C#N)CC1 [Example 38] |  | logP = 2.08^a) |  | 
28 | CCOC(=O)C1CCN(c2cc(-n3c(=O)cc(C(F)(F)F)[nH]c3=O)c(F)cc2C#N)CC1 |  |  |  | melting point: 124.5 °C
29 | Cn1c(C(F)(F)F)cc(=O)n(-c2cc(N3C(=O)CSC3=O)c(C#N)cc2F)c1=O [Example 11] | tolerated well | logP = 2.36^a) |  | activity against weeds (degree of damage vs untreated control) [5]: very strong activity
30 | CCOC(=O)C1CCCN(c2cc(-n3c(=O)cc(C(F)(F)F)[nH]c3=O)c(F)cc2C#N)C1 (stereo not drawn) [Example 24] | tolerated well | logP = 3.31^a) | tolerated well | 
31 | CCOC(=O)C1CCCN(c2cc(-n3c(=O)cc(C(F)(F)F)n(C)c3=O)c(F)cc2Br)C1 (stereo not drawn) [Example 73] |  | logP = 3.99^a) |  | 
32 | COC(=O)C1CCN(c2cc(-n3c(=O)cc(C(F)(F)F)n(C)c3=O)c(F)cc2C#N)CC1 [Example 28] | tolerated well | logP = 2.88^a) | tolerated well | activity against weeds (degree of damage vs untreated control) [3]: very strong activity; activity against weeds (degree of damage vs untreated control) [5]: very strong activity
33 | CCOC(=O)C1CCCN(c2cc(-n3c(=O)cc(C(F)(F)F)n(C)c3=O)c(F)cc2Cl)C1 (stereo not drawn) [Example 68] |  | logP = 3.87^a) |  | 
34 | Cn1c(C(F)(F)F)cc(=O)n(-c2cc(N3CCC(O)CC3)c(C#N)cc2F)c1=O [Example 20] | tolerated well | logP = 3.97^a) | tolerated well | activity against weeds (degree of damage vs untreated control) [3]: very strong activity; activity against weeds (degree of damage vs untreated control) [5]: very strong activity
